Measurements: patent US20230000842A1, “METHODS OF TREATING CARTILAGE DISORDERS THROUGH INHIBITION OF CLK AND DYRK” (SAMUMED, LLC, priority 2019, published 2023)

Legend:
CLK2 kinase = CLK2 kinase (Homo sapiens, UniProt P49760); experiment: CLK2 kinase activity assay (Z-lyte FRET); assay type: biochemical; conditions: Z-lyte Ser/Thr 6 peptide, 60 μM ATP, 1 h at room temperature;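 note: FRET read-out as coumarin to fluorescein emission ratio, unphosphorylated peptide as 0% and phosphorylated peptide as 100% controls, duplicate reactions, non-linear regression fit of dose-response curves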
CLK3 kinase = CLK3 kinase (Homo sapiens, UniProt P49761); experiment: CLK3 kinase activity assay (Z-lyte FRET); assay type: biochemical; conditions: Z-lyte Ser/Thr 18 peptide, 156 μM ATP, 1 h at room temperature;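 note: kinase activity read as coumarin/fluorescein emission ratio by FRET, unphosphorylated peptide as 0% and phosphorylated peptide as 100% control, values from non-linear regression of dose-response curves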
Experimental: This is a non-radioactive assay using fluorescence resonance energy transfer (FRET) between coumarin and fluorescein to detect kinase activity which is represented as a ratio of coumarin emission/fluorescein emission.
The mixture was allowed to incubate with the representative compounds for one hour at room temperature. All reactions were performed in duplicate. Unphosphorylated (“0% Control”) and phosphorylated (“100% control”) forms of Ser/Thr 18 served as control reactions. Additionally, an 11-point dose-response curve of Staurosporine (1 μM top) was run to serve as a positive compound control.
After incubation, Development Reagent A was diluted in Development Buffer then added to the reaction and allowed to further incubate for one hour at room temperature.
Dose-response curves were generated and inhibitory concentration (IC50) values were calculated using non-linear regression curve fit in the Dotmatics' Studies Software (Bishops Stortford, UK).

[1] = test system: primary human mesenchymal stem cells (hMSCs); experiment: Chondrogenesis screening using primary human mesenchymal stem cells; assay type: cell-based; conditions: Homo sapiens, Mesenchymal stem cells, hMSC chondrogenesis; for Emax: maximum activity relative to TGF-β3 (10 ng/mL) positive control, read-out: Max. Activity as % TGF-β3 activity; for EC50: concentration required to induce 50% levels of chondrogenesis with TGF-β3 as positive control, read-out: Conc (nM) of 50% TGF-β3 activity
Summary of the method: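 Primary hMSCs at passage 3–6 were treated across compound concentrations, with TGF-β3 as positive control. Chondrogenic nodule area per well was normalized to 3 DMSO wells on the same plate (fold over DMSO, 2–3 replicates). EC50, maximum activity and the dose reaching it were derived.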

[2] = test system: Wnt pathway activity (SW480 colon carcinoma cells stably expressing the Sp5-Luc reporter); experiment: Wnt pathway activity screening assay (Sp5-Luc reporter gene assay); conditions: Homo sapiens, SW480, Table 4; SW480 cells stably expressing Sp5-Luc reporter, 10-point dose-response from 10 μM, 36 to 48 hours

Sequence of CLK3 kinase (P49761 whole entry): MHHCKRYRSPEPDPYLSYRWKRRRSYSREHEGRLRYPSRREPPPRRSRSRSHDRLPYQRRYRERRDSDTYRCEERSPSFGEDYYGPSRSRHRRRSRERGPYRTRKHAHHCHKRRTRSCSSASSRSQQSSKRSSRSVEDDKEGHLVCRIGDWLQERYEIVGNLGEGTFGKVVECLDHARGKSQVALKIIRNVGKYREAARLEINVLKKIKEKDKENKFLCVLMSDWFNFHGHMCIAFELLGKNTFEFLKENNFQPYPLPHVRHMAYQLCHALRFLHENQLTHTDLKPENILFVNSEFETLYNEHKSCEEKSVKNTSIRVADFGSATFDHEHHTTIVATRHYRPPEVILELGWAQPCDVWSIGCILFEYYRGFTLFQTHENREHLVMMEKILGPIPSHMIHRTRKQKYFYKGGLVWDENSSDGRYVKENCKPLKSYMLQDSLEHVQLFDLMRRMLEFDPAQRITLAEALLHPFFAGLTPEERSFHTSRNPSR
Sequence of CLK2 kinase (P49760 whole entry): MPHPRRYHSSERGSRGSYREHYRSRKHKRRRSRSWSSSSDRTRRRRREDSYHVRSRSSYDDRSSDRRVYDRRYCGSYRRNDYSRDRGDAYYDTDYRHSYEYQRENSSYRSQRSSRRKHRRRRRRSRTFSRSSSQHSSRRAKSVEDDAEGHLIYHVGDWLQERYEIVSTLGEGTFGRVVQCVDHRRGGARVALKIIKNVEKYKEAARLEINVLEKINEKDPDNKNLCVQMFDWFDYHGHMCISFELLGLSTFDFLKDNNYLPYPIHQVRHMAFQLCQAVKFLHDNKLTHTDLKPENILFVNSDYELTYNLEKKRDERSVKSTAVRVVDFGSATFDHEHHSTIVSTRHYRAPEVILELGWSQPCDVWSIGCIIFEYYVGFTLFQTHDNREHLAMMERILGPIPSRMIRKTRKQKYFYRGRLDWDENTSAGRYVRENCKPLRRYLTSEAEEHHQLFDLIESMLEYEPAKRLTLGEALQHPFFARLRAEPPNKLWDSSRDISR

Row | Structure (SMILES) | EC50 (CLK2 kinase) [nM] | EC50 (CLK3 kinase) [nM] | EC50 [2] [nM] | EC50 [1] [nM] | Emax [1] [%]
1 | CCCC(=O)Nc1cncc(-c2ccc3[nH]nc(-c4nc5c(-c6ccsc6)cncc5[nH]4)c3c2)c1 [compound 246] | 3 | 21 | 61.5 |  | 42
2 | CCCC(=O)Nc1cncc(-c2ccc3[nH]nc(-c4nc5c(-c6ccsc6)cncc5[nH]4)c3n2)c1 [compound 247] | 2 | 48 | 3640 | 20.6 | 58.4
3 | CN(C)Cc1cncc(-c2cnc3[nH]nc(-c4nc5c(-c6ccsc6)cncc5[nH]4)c3c2)c1 [compound 252] | 2 | 118 | 57 |  | 91.3
4 | FC1(F)CCN(Cc2cncc(-c3ccc4[nH]nc(-c5nc6c(-c7ccsc7)cncc6[nH]5)c4c3)c2)C1 [compound 253] | 7 | 26 | 1.8 |  | 81.3
5 | CCC(=O)Nc1cncc(-c2cnc3[nH]nc(-c4nc5c(-c6cccs6)cncc5[nH]4)c3c2)c1 [compound 255] | 3 | 62 | 4 |  | 69.8
6 | CC(C)CC(=O)Nc1cncc(-c2ccc3[nH]nc(-c4nc5c(-c6cccs6)cncc5[nH]4)c3c2)c1 [compound 256] | 9 | 62 | 0.1 |  | 53.3
7 | CN(C)c1cncc(-c2ccc3[nH]nc(-c4nc5c(-c6cccs6)cncc5[nH]4)c3n2)c1 [compound 258] | 2 | 83 | 710 | 10 | 65.6
8 | c1csc(-c2cncc3[nH]c(-c4n[nH]c5ncc(-c6cncc(CNCC7CCCC7)c6)cc45)nc23)c1 [compound 259] | 4 | 167 | 98 |  | 74.6
9 | CN(C)CCOc1cncc(-c2ccc3[nH]nc(-c4nc5c(-c6cccs6)cccc5[nH]4)c3n2)c1 [compound 261] | 2 | 150 | 3110 | 10 | 142
10 | CC(C)(C)C(=O)Nc1cncc(-c2ccc3[nH]nc(-c4nc5c(-c6ccc(F)s6)ccnc5[nH]4)c3c2)c1 [compound 262] | 85 | 754 | 16.7 | 30 | 120
11 | CC(C)(C)C(=O)Nc1cncc(-c2ccc3[nH]nc(-c4nc5c(-c6ccc(Cl)s6)cncc5[nH]4)c3n2)c1 [compound 265] | 8 | 91 | 551 | 10 | 84.7
12 | CC(C)CC(=O)Nc1cncc(-c2ccc3[nH]nc(-c4nc5c(-c6ccc(Cl)s6)cncc5[nH]4)c3n2)c1 [compound 266] | 15 | 67 | 1480 | 10 | 60.6
13 | O=C(Nc1cncc(-c2ccc3[nH]nc(-c4nc5c(-c6ccc(Cl)s6)nccc5[nH]4)c3n2)c1)C1CCC1 [compound 267] | 8 | 9840 | 823 | 30 | 60.2
14 | O=C(Nc1cncc(-c2ccc3[nH]nc(-c4nc5c(-c6ccc(Cl)s6)cncc5[nH]4)c3n2)c1)C1CCC1 [compound 268] | 12 | 145 | 800 | 30 | 67.9
15 | O=C(Nc1cncc(-c2ccc3[nH]nc(-c4nc5c(-c6ccc(Cl)s6)ccnc5[nH]4)c3n2)c1)C1CCC1 [compound 269] | 12 | 183 | 354 | 10 | 102
16 | Clc1ccc(-c2cncc3[nH]c(-c4n[nH]c5ccc(-c6cncc(CN7CCCC7)c6)nc45)nc23)s1 [compound 270] | 4 | 88 | 3330 | 10 | 62
17 | Cc1ccc(-c2cncc3[nH]c(-c4n[nH]c5ccc(-c6cncc(N)c6)nc45)nc23)s1 [compound 276] | 2 | 9 | 40.7 | 30 | 79.4
18 | CCCCC(=O)Nc1cncc(-c2ccc3[nH]nc(-c4nc5c(-c6cc(F)cc(NCCN(C)C)c6)cncc5[nH]4)c3n2)c1 [compound 279] | 2 | 93 | > 10000 | 10 | 64.7
19 | CCCCC(=O)Nc1cncc(-c2ccc3[nH]nc(-c4nc5c(-c6cc(F)cc(NCCN(C)C)c6)ccnc5[nH]4)c3n2)c1 [compound 280] | 2 | 79 | > 10000 | 10 | 71.4
20 | CC(C)Nc1cncc(-c2cnc3[nH]nc(-c4nc5c(-c6cc(F)cc(NCCN(C)C)c6)nccc5[nH]4)c3c2)c1 [compound 283] | 4 | 33 | 154 | 30 | 82.9

Second part, led by results:

Row | EC50 (CLK2 kinase) [nM] | EC50 (CLK3 kinase) [nM] | EC50 [2] [nM] | EC50 [1] [nM] | Structure (SMILES) | Emax [1] [%]
21 | 1 | 30 | 59.3 | 30 | CCNCc1cncc(-c2cc3c(-c4nc5c(-c6ccsc6)nccc5[nH]4)n[nH]c3cn2)c1 [compound 249] | 67.7
22 | 3 | 43 | 12 |  | c1cncc(-c2cnc3[nH]nc(-c4nc5c(-c6cccs6)cccc5[nH]4)c3c2)c1 [compound 254] | 41.6
23 | 7 | 115 | 22.2 |  | O=C(Nc1cncc(-c2cc3c(-c4nc5c(-c6cccs6)nccc5[nH]4)n[nH]c3cn2)c1)C1CC1 [compound 257] | 68.3
24 | 18 | 358 | 35.3 |  | CC(C)(C)C(=O)Nc1cncc(-c2cc3c(-c4nc5c(-c6ccc(F)s6)nccc5[nH]4)n[nH]c3cn2)c1 [compound 263] | 40.9
25 | 2 | 34 | 66.3 | 10 | Cc1ccc(-c2cccc3[nH]c(-c4n[nH]c5ccc(-c6cncc(N)c6)nc45)nc23)s1 [compound 271] | 87.9
26 | 5 | 52 | 1.9 | 2700 | Cc1ccc(-c2nccc3[nH]c(-c4n[nH]c5ccc(-c6cncc(N)c6)cc45)nc23)s1 [compound 272] | 163
27 | 4 | 29 | 9.2 | 10 | Cc1ccc(-c2nccc3[nH]c(-c4n[nH]c5cnc(-c6cncc(N)c6)cc45)nc23)s1 [compound 273] | 259
28 | 11 | 203 | 10.9 | 100 | Cc1ccc(-c2cncc3[nH]c(-c4n[nH]c5cnc(-c6cncc(N)c6)cc45)nc23)s1 [compound 274] | 162
29 | 6 | 29 | 10.1 | 100 | Cc1ccc(-c2cncc3[nH]c(-c4n[nH]c5cnc(-c6cncc(NC(=O)C7CCC7)c6)cc45)nc23)s1 [compound 277] | 231
30 | 5 | 36 | 21 | 300 | CN(C)CCNc1cc(F)cc(-c2cncc3[nH]c(-c4n[nH]c5ncc(-c6cccnc6)cc45)nc23)c1 [compound 278] | 129
31 | 6 | 25 | 22 |  | CC(C)CC(=O)Nc1cncc(-c2ccc3[nH]nc(-c4nc5c(-c6cc(F)cc(NCCN(C)C)c6)cncc5[nH]4)c3c2)c1 [compound 281] | 82
32 | 4 | 50 | 202 | 30 | CC(C)Nc1cncc(-c2ccc3[nH]nc(-c4nc5c(-c6cc(F)cc(NCCN(C)C)c6)nccc5[nH]4)c3c2)c1 [compound 282] | 85.1
33 | 1 | 90 | > 10000 |  | CCNCc1cncc(-c2ccc3[nH]nc(-c4nc5c(-c6cc(F)cc(NCCN(C)C)c6)nccc5[nH]4)c3n2)c1 [compound 285] | 35.6
34 | 3 | 82 | > 10000 | 20.6 | CCNCc1cncc(-c2ccc3[nH]nc(-c4nc5c(-c6cc(F)cc(NCCN(C)C)c6)ccnc5[nH]4)c3n2)c1 [compound 286] | 149
35 | 11 | 37 | 30.4 | 30 | Cc1ccncc1-c1cc2c(-c3nc4c(-c5cc(F)cc(CNS(C)(=O)=O)c5)cccc4[nH]3)n[nH]c2cn1 [compound 288] | 81.8
36 | 4 | 39 | 124 | 10 | Cc1ccncc1-c1cnc2[nH]nc(-c3nc4c(-c5cc(F)cc(CNS(C)(=O)=O)c5)nccc4[nH]3)c2c1 [compound 289] | 92.8
37 | 32 | 54 | 109 | 30 | Cc1ccncc1-c1cc2c(-c3nc4c(-c5cc(F)cc(CNS(C)(=O)=O)c5)ccnc4[nH]3)n[nH]c2cn1 [compound 291] | 70
38 | 9 | 60 | 5 | 100 | CC(C)CC(=O)Nc1cncc(-c2ccc3[nH]nc(-c4nc5c(-c6cc(F)cc(CNS(C)(=O)=O)c6)cncc5[nH]4)c3c2)c1 [compound 292] | 118
